Source: article PMC6140472 (Proceedings of the National Academy of Sciences of the …, 2018)

Target: T1, MhFPPS (MhIDS-2), full-length (Murgantia histrionica, UniProt A0A343W970)
T1 sequence (A0A343W970 1-405): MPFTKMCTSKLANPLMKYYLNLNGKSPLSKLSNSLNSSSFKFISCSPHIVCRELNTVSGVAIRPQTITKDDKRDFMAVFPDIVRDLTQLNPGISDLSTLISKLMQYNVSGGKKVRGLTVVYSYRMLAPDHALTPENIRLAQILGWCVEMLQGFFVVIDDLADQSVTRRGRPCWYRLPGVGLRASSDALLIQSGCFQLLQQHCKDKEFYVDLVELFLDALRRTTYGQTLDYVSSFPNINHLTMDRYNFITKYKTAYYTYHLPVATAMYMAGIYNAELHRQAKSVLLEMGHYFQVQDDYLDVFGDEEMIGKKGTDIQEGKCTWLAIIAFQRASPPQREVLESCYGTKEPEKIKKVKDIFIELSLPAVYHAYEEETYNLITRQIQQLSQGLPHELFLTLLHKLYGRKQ
Experiment: LC-MS/MS product assay
Type: biochemical

Structure (SMILES)	LC-MS/MS product assay (co-substrate IPP)	LC-MS/MS product assay (co-substrate DMAPP)
CC(C)=CCOP(=O)(O)OP(=O)(O)O [DMAPP]	MhIDS-2 produced (E,E)-FPP from IPP and DMAPP	
C=C(C)CCOP(=O)(O)OP(=O)(O)O [IPP]		MhIDS-2 produced (E,E)-FPP from IPP and DMAPP
